From US8546451B2 (priority 2005, dated 2013)
Marks after values point to notes of the source that are not given here.

Assays:
liver X receptor (LXR) = assay: Cross-reactivity transcriptional activation assay, LXR; format: cell-based, human; details: agonist and antagonist modes
From the text: (§1) Compound IV was screened for cross-reactivity against rat isoforms of glucocorticoid receptor (GR), mineralocorticoids receptor (MR), progesterone receptor (PR), androgen receptor (AR) and human isoforms of farnesoid X receptor (FXR), liver X receptor (LXR), peroxisome proliferator-activated receptors (PPAR-α and PPAR-γ), and retinoid X receptor (RXR-α) in both agonist and antagonist modes in transcriptional activation assays.

[1] = biological target: retinoid X receptor (RXR-α) (Homo sapiens (Human), UniProt P19793); assay: Cross-reactivity transcriptional activation assay, RXR-α; format: cell-based; details: agonist and antagonist modes
Chain of retinoid X receptor (RXR-α) (P19793 whole entry): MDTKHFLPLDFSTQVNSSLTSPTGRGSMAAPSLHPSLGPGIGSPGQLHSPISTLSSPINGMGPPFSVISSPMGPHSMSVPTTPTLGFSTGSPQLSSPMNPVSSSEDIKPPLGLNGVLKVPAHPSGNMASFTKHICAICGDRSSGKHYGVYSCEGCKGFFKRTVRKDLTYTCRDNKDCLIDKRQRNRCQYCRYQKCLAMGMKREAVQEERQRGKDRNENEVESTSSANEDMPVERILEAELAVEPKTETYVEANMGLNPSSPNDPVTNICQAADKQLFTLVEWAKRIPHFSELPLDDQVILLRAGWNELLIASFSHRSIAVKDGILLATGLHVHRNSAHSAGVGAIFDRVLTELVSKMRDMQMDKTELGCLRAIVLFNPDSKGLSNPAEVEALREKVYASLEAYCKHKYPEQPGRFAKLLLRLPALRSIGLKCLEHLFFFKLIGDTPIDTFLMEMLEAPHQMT
From the text: as §1

[2] = test system: morphine dependent rat model; assay: Hot flashes in morphine dependent rat model (tail skin temperature); format: in vivo; details: morphine withdrawal model
Description: FIG. 13 depicts effect of Compound IV on attenuation of hot flashes in morphine withdrawal model with 5 mg/kg, 10 mg/kg, 15 mg/kg and 30 mg/kg dosages. N=7 animals per group. 17β-E2 was used at 5 mg/kg in 100% DMSO. (See Example 14.)
In addition to the similarities to the human condition, this experimental animal model has a short turn around time which makes it a useful high throughput screening tool for identifying compounds that can alleviate vasomotor symptoms using the tail skin temperature (TST). TST probes TA-40 (Data Sciences International, MN) were taped to the base of the tails and baseline temperatures were obtained for 15 minutes. After 15 minutes the animals were treated with naloxone (1 mg/kg, SQ) to reverse the effects of the morphine. Tail skin temperature (TST) was measured for one hour post-naloxone treatment with a sampling frequency of 5 secs throughout the course of the experiment. Following the data acquisition, the moving average of the temperature recorded every 60 seconds for each animal was calculated and further analyzed. Baseline temperature was computed as the average temperature acquired over the 15 minutes preceding naloxone administration. The area under the curve (AUC) was calculated by subtracting all the values post-naloxone administration from the baseline using a linear trapezoid method.

CYP3A4 = assay: CYP450 induction in vitro, CYP3A4; format: in vitro ADME
[3] = test system: human peripheral blood lymphocytes; assay: Chromosomal aberrations in human peripheral blood lymphocytes in vitro; format: cell-based; details: concentrations up to 200 μM
[4] = test system: testosterone, prostate specific antigen (PSA), prostate volume and weight; assay: 39-week oral pharmacology and toxicology study in male cynomolgus monkey (13-week interim); details: for Mean serum PSA level / Percentage change of mean PSA levels compared to baseline: 4-week; for Percentage change of mean prostate volumes compared to baseline / Mean prostate volumes (ratio): 6-week; for Mean prostate volumes (ratio): TRUS, normalized to body weight; for Mean prostate weights at necropsy / Percentage change of mean prostate weights compared to baseline: 13-week
[5] = 1 mg/kg/day oral, Estimated final concentrations
[6] = 1 mg/kg/day oral, Quantifiable concentrations only
[7] = 10 mg/kg/day oral, Estimated final concentrations
[8] = 10 mg/kg/day oral, Quantifiable concentrations only
[9] = 100 mg/kg/day oral, Estimated final concentrations
[10] = 100 mg/kg/day oral, Quantifiable concentrations only
[11] = Day 1, 1 mg/kg/day oral, Estimated final concentrations
[12] = Day 1, 1 mg/kg/day oral, Quantifiable concentrations only
[13] = Day 1, 10 mg/kg/day oral, Estimated final concentrations
[14] = Day 1, 10 mg/kg/day oral, Quantifiable concentrations only
[15] = Day 1, 100 mg/kg/day oral, Estimated final concentrations
[16] = Day 1, 100 mg/kg/day oral, Quantifiable concentrations only
[17] = Day 3, 1 mg/kg/day oral, Estimated final concentrations
[18] = Day 3, 1 mg/kg/day oral, Quantifiable concentrations only
[19] = Day 3, 10 mg/kg/day oral, Estimated final concentrations
[20] = Day 3, 10 mg/kg/day oral, Quantifiable concentrations only
[21] = Day 3, 100 mg/kg/day oral, Estimated final concentrations
[22] = Day 3, 100 mg/kg/day oral, Quantifiable concentrations only
[23] = Day 7, 1 mg/kg/day oral, Estimated final concentrations
[24] = Day 7, 1 mg/kg/day oral, Quantifiable concentrations only
[25] = Day 7, 10 mg/kg/day oral, Estimated final concentrations

## O=C(c1ccc(O)c(F)c1)N(c1ccc(O)cc1)c1ccc(F)cc1 [Compound IV, 3-fluoro-N-(4-fluorophenyl)-4-hydroxy-N-(4-hydroxyphenyl)benzamide]
Liver X receptor (LXR)
  agonist or antagonist activity: did not display any agonist or antagonist activity
[1]
  agonist or antagonist activity: did not display any agonist or antagonist activity
[2]
  dose with the best results: 10 mg
[2]; 5, 10, 15 and 30 mg/kg (FIG. 13)
  effect on hot flushes: attenuated hot flushes
CYP3A4
  induction of CYP3A4: does not induce
[3]
  structural or numeric chromosomal aberrations: did not induce structural or numeric chromosomal aberrations
[4]; 10 mg/kg for 4 weeks
  PSA reduction (in mean): 69%
[4]; 100 mg/kg for 4 weeks
  PSA reduction (in mean): 87%
[4]; 100 mg/kg, 91 days (FIG. 14)
  body weight reduction: ~20%
[4]; [5]
  Mean serum PSA level: 0.9 ng/mL
  Percentage change of mean PSA levels compared to baseline: −11%
[4]; [6]
  Mean serum PSA level: 0.9 ng/mL
  Percentage change of mean PSA levels compared to baseline: −11%
[4]; [7]
  Mean serum PSA level: 0.3* ng/mL
  Percentage change of mean PSA levels compared to baseline: −69%
[4]; [8]
  Mean serum PSA level: 0.3 ng/mL
  Percentage change of mean PSA levels compared to baseline: −64%
[4]; [9]
  Mean serum PSA level: 0.1^& ng/mL
  Percentage change of mean PSA levels compared to baseline: −87%
[4]; [10]
  Mean serum PSA level: 0.3 ng/mL
  Percentage change of mean PSA levels compared to baseline: −72%
[4]; 1 mg/kg/day oral
  Percentage change of mean prostate volumes compared to baseline: 6.8%
  Mean prostate volumes (ratio): 468
  Mean prostate weights at necropsy: 1.8 grams
  Percentage change of mean prostate weights compared to baseline: 1.7%
[4]; 10 mg/kg/day oral
  Percentage change of mean prostate volumes compared to baseline: −25%
  Mean prostate volumes (ratio): 327
  Mean prostate weights at necropsy: 1.3 grams
  Percentage change of mean prostate weights compared to baseline: −24%
[4]; 100 mg/kg/day oral
  Percentage change of mean prostate volumes compared to baseline: −45%
  Mean prostate volumes (ratio): 242
  Mean prostate weights at necropsy: 1.4 grams
  Percentage change of mean prostate weights compared to baseline: −21%
[4]; 91 days (FIG. 14)
  gynecomastia or hyperestrogenicity: No sign of gynecomastia or hyperestrogenicity
[4]; [11]
  Mean serum testosterone level: 11 ng/mL
  Percentage change of mean serum testosterone levels compared to baseline: 44%
[4]; [12]
  Mean serum testosterone level: 11 ng/mL
  Percentage change of mean testosterone levels compared to baseline: 44%
[4]; [13]
  Mean serum testosterone level: 7.6 ng/mL
  Percentage change of mean serum testosterone levels compared to baseline: 54%
[4]; [14]
  Mean serum testosterone level: 7.6 ng/mL
  Percentage change of mean testosterone levels compared to baseline: 54%
[4]; [15]
  Mean serum testosterone level: 8.0 ng/mL
  Percentage change of mean serum testosterone levels compared to baseline: 82%
[4]; [16]
  Mean serum testosterone level: 8.0 ng/mL
  Percentage change of mean testosterone levels compared to baseline: 82%
[4]; [17]
  Mean serum testosterone level: 7.4 ng/mL
  Percentage change of mean serum testosterone levels compared to baseline: 1.8%
[4]; [18]
  Mean serum testosterone level: 7.4 ng/mL
  Percentage change of mean testosterone levels compared to baseline: 1.8%
[4]; [19]
  Mean serum testosterone level: 5.1 ng/mL
  Percentage change of mean serum testosterone levels compared to baseline: 3.5%
[4]; [20]
  Mean serum testosterone level: 5.1 ng/mL
  Percentage change of mean testosterone levels compared to baseline: 3.5%
[4]; Day 3, 100 mg/kg/day oral
  suppression of serum testosterone relative to the baseline value: 60%
[4]; [21]
  Mean serum testosterone level: 1.8* ng/mL
  Percentage change of mean serum testosterone levels compared to baseline: −60%
[4]; [22]
  Mean serum testosterone level: 1.8 ng/mL
  Percentage change of mean testosterone levels compared to baseline: −60%
[4]; [23]
  Mean serum testosterone level: 6.7 ng/mL
  Percentage change of mean serum testosterone levels compared to baseline: −8.1%
[4]; [24]
  Mean serum testosterone level: 6.7 ng/mL
  Percentage change of mean testosterone levels compared to baseline: −8.1%
[4]; [25]
  Mean serum testosterone level: 7.7 ng/mL
  Percentage change of mean serum testosterone levels compared to baseline: 57%
